Assay results published in PubChem BioAssay AID1745844 (Carcinogenic Potency Database (CPDB), 2022).
Several values for one entry are separate records, joined by “and”; a condition that tells them apart may be missing. Equal entries are not always repeated. Activity calls are given as the source filed them. No rule for the calls is given here.

Test system: rodent lifetime carcinogenesis bioassay, tumor incidence TD50
Experiment: chronic cancer bioassays in animals – CPDB, compiled studies (AID 1745844)

Question: For `CCCCN(N)C=O`, which TD50 (mouse, strain Swiss albino, females, in drinking water, site: clitoral gland, lesion: several types, types named in the paper, dosed 92 weeks, study length 92 weeks) is on record?
Answer: Its TD50 is 252 mg/kg/day.

Question: And the TD50 (mouse, strain Swiss albino, females, in drinking water, site: clitoral gland, lesion: squamous-cell carcinoma, dosed 92 weeks, study length 92 weeks)?
Answer: The TD50 was 321 mg/kg/day.

Question: And the TD50 (mouse, strain Swiss albino, females, in drinking water, site: lung, lesion: several types, types named in the paper, dosed 92 weeks, study length 92 weeks)?
Answer: Its TD50 is 19.4 mg/kg/day.

Question: And the carcinogen call (mouse, strain Swiss albino, males, in drinking water, site: liver, lesion: angioma, dosed 90 weeks, study length 90 weeks)?
Answer: The carcinogen call was “negative (inactive)”.

Question: What about the TD50 (mouse, strain Swiss albino, males, in drinking water, site: lung, lesion: several types, types named in the paper, dosed 90 weeks, study length 90 weeks) of the same molecule?
Answer: Its TD50 is 19.2 mg/kg/day.

Question: And the TD50 (mouse, strain Swiss albino, males, in drinking water, site: preputial gland, lesion: angiosarcoma, dosed 90 weeks, study length 90 weeks)?
Answer: The TD50 was 519 mg/kg/day.

Question: And the TD50 (mouse, strain Swiss albino, males, in drinking water, site: preputial gland, lesion: fibrosarcoma, dosed 90 weeks, study length 90 weeks)?
Answer: The TD50 was 304 mg/kg/day.

Question: What about the TD50 (mouse, strain Swiss albino, males, in drinking water, site: preputial gland, lesion: several types, types named in the paper, dosed 90 weeks, study length 90 weeks) of the same molecule?
Answer: Its TD50 is 28.2 mg/kg/day.

Question: And the TD50 (mouse, strain Swiss albino, males, in drinking water, site: preputial gland, lesion: squamous-cell carcinoma, dosed 90 weeks, study length 90 weeks)?
Answer: Its TD50 is 35.6 mg/kg/day.

Question: What does the source list for `CN(C)C(=O)Cl`?
Answer: TD50 (hamster, strain Syrian Golden, males, inhaled, site: nasal cavity, lesion: squamous-cell carcinoma, dosed 112 weeks, study length 112 weeks): 0.625 mg/kg/day; TD50 (mouse, strain Ha/ICR, females, i.p., site: abdomen, lesion: sarcoma, dosed 64 weeks, study length 64 weeks): 5.37 mg/kg/day; TD50 (mouse, strain Ha/ICR, females, i.p., site: abdomen, lesion: several types, types named in the paper, dosed 64 weeks, study length 64 weeks): 4.59 mg/kg/day; TD50 (mouse, strain Ha/ICR, females, i.p., site: lung, lesion: papillary tumor, dosed 64 weeks, study length 64 weeks): 6.65 mg/kg/day

Question: With `COc1ccc([N+](=O)[O-])cc1N=Nc1c(O)c(C(=O)Nc2cccc([N+](=O)[O-])c2)cc2ccccc12` as the molecule, how does the TD50 (mouse, strain B6C3F1, females, in feed, site: any site (literature study), lesion: several types, types named in the paper, dosed 103 weeks, study length 103 weeks) read?
Answer: Its TD50 is 29700 mg/kg/day (inactive).

Question: What about the TD50 (mouse, strain B6C3F1, females, in feed, site: lung, lesion: alveolar/bronchiolar adenoma + alveolar/bronchiolar carcinoma, dosed 103 weeks, study length 103 weeks) of the same molecule?
Answer: The TD50 was 45200 mg/kg/day.

Question: What about the TD50 (mouse, strain B6C3F1, males, in feed, site: any site (literature study), lesion: several types, types named in the paper, dosed 103 weeks, study length 103 weeks) of the same molecule?
Answer: The TD50 was 20200 mg/kg/day (inactive).

Question: And the TD50 (mouse, strain B6C3F1, males, in feed, site: liver, lesion: hepatocellular adenoma + hepatocellular carcinoma + neoplastic nodule, dosed 103 weeks, study length 103 weeks)?
Answer: Its TD50 is 15100 mg/kg/day.

Question: What about the TD50 (mouse, strain B6C3F1, males, in feed, site: lung, lesion: alveolar/bronchiolar adenoma + alveolar/bronchiolar carcinoma, dosed 103 weeks, study length 103 weeks) of the same molecule?
Answer: Its TD50 is 112000 mg/kg/day.

Question: What about the carcinogen call (rat, strain Fischer 344, females, in feed, site: any site (literature study), lesion: several types, types named in the paper, dosed 103 weeks, study length 104 weeks) of the same molecule?
Answer: Its carcinogen call is “negative (inactive)”.

Question: What about the TD50 (rat, strain Fischer 344, males, in feed, site: kidney, lesion: tubule adenoma + tubule carcinoma, dosed 103 weeks, study length 104 weeks) of the same molecule?
Answer: Its TD50 is 19800 mg/kg/day and 16300 mg/kg/day.

Question: Which results are given for `O=S1(=O)N=C(O)c2ccccc21`?
Answer: carcinogen call (rat, strain Fischer 344, males, in feed, site: forestomach, lesion: papilloma, dosed 72 weeks, study length 73 weeks): negative (inactive); carcinogen call (rat, strain Fischer 344, males, in feed, site: urinary bladder, lesion: carcinoma, dosed 72 weeks, study length 73 weeks): negative (inactive)

Question: `CC(=O)NN` was tested. Which TD50 (mouse, strain Swiss, females, by gavage, site: lung, lesion: several types, types named in the paper, dosed 34 weeks, study length 95 weeks) did it give?
Answer: The TD50 was 18.8 mg/kg/day.

Question: What about the TD50 (mouse, strain Swiss, females, by gavage, site: lung, lesion: several types, types named in the paper, dosed 95 weeks, study length 95 weeks) of the same molecule?
Answer: Its TD50 is 53.8 mg/kg/day.

Question: And the TD50 (mouse, strain Swiss, males, by gavage, site: lung, lesion: several types, types named in the paper, dosed 34 weeks, study length 95 weeks)?
Answer: The TD50 was 4.48 mg/kg/day.

Question: And the TD50 (mouse, strain Swiss, males, by gavage, site: lung, lesion: several types, types named in the paper, dosed 95 weeks, study length 95 weeks)?
Answer: Its TD50 is 35.6 mg/kg/day.

Question: For `C1CNCCN1`, which TD50 (rat, strain MRC, females, in drinking water, site: any site (literature study), lesion: several types, types named in the paper, dosed 75 weeks, study length 104 weeks) is on record?
Answer: The TD50 was 11.2 mg/kg/day.

Question: Which carcinogen call (rat, strain Wistar, males, in drinking water, site: stomach, glandular, lesion: one or several types, types not named, dosed 52 weeks, study length 78 weeks) does the source give for `CCCCCN(N=O)C(=N)N[N+](=O)[O-]` here?
Answer: Its carcinogen call is “negative (inactive)”.

Question: What does the source list for `O=C1CCCCCN1`?
Answer: carcinogen call (mouse, strain B6C3F1, females, in feed, site: any site (literature study), lesion: several types, types named in the paper, dosed 103 weeks, study length 105 weeks): negative (inactive); carcinogen call (mouse, strain B6C3F1, males, in feed, site: any site (literature study), lesion: several types, types named in the paper, dosed 103 weeks, study length 105 weeks): negative (inactive); TD50 (mouse, strain B6C3F1, males, in feed, site: liver, lesion: hepatocellular adenoma + hepatocellular carcinoma + neoplastic nodule, dosed 103 weeks, study length 105 weeks): 34300 mg/kg/day; carcinogen call (rat, strain Fischer 344, females, in feed, site: any site (literature study), lesion: several types, types named in the paper, dosed 103 weeks, study length 105 weeks): negative (inactive); TD50 (rat, strain Fischer 344, males, in feed, site: liver, lesion: hepatocellular adenoma + hepatocellular carcinoma + neoplastic nodule, dosed 103 weeks, study length 105 weeks): 5690 mg/kg/day; TD50 (rat, strain Fischer 344, males, in feed, site: pituitary gland, lesion: carcinoma, NOS, dosed 103 weeks, study length 105 weeks): 3560 mg/kg/day (inactive)

Question: What does the source list for `Cc1cc(OC(=O)N(C)C)n(C(C)C)n1`?
Answer: TD50 (mouse, strain B6AKF1, females, oral dosing, site: any site (literature study), lesion: several types, types named in the paper, dosed 76 weeks, study length 76 weeks): 0.023 mg/kg/day (inactive); carcinogen call (mouse, strain B6AKF1, females, oral dosing, site: liver, lesion: hepatoma, dosed 76 weeks, study length 76 weeks): negative (inactive); carcinogen call (mouse, strain B6AKF1, females, oral dosing, site: lung, lesion: several types, types named in the paper, dosed 76 weeks, study length 76 weeks): negative (inactive); TD50 (mouse, strain B6AKF1, males, oral dosing, site: any site (literature study), lesion: several types, types named in the paper, dosed 76 weeks, study length 76 weeks): 0.0124 mg/kg/day (inactive); TD50 (mouse, strain B6AKF1, males, oral dosing, site: liver, lesion: hepatoma, dosed 76 weeks, study length 76 weeks): 0.0419 mg/kg/day (inactive); TD50 (mouse, strain B6AKF1, males, oral dosing, site: lung, lesion: adenoma, dosed 76 weeks, study length 76 weeks): 0.0147 mg/kg/day (inactive); carcinogen call (mouse, strain B6C3F1, females, oral dosing, site: any site (literature study), lesion: several types, types named in the paper, dosed 76 weeks, study length 76 weeks): negative (inactive); carcinogen call (mouse, strain B6C3F1, females, oral dosing, site: liver, lesion: hepatoma, dosed 76 weeks, study length 76 weeks): negative (inactive); carcinogen call (mouse, strain B6C3F1, females, oral dosing, site: lung, lesion: adenoma, dosed 76 weeks, study length 76 weeks): negative (inactive); TD50 (mouse, strain B6C3F1, males, oral dosing, site: any site (literature study), lesion: several types, types named in the paper, dosed 76 weeks, study length 76 weeks): 0.0413 mg/kg/day (inactive); carcinogen call (mouse, strain B6C3F1, males, oral dosing, site: liver, lesion: hepatoma, dosed 76 weeks, study length 76 weeks): negative (inactive); TD50 (mouse, strain B6C3F1, males, oral dosing, site: lung, lesion: adenoma, dosed 76 weeks, study length 76 weeks): 0.0156 mg/kg/day (inactive)
